Measured values from patent US7411067B2, “Crystalline forms of gatifloxacin” (Teva Pharmaceutical Industries Ltd, priority 2002, dated 2008).

Assays:
[1] = Exposure of powder as a thin layer in a controlled humidity cell; resulting crystalline form by x-ray diffraction; assay type: physicochemical; settings: 200 mg powder as thin layer
Description: As used herein in connection with the present invention, x-ray diffraction refers to x-ray diffraction by the powder diffraction technique. X-ray powder diffraction analysis was performed using a Scintag powder diffractometer with variable goniometer, a Cu source, and a solid state detector. A standard round aluminum sample holder with zero background quartz plate was used. Samples were scanned from 2° to 40° 2θ at 3° per minute in the continuous scan mode. Reflections are reported as peak maxima in the intensity vs. 2θ plots, and are subject to the normal experimental error (uncertainty). Samples were promptly analyzed “as is”.
In another embodiment, the present invention provides a method of making a mixture of novel crystalline form O and prior-art sesqihydrate. The ratios will depend, inter alia, on the conditions of treatment. The mixtures can be made by exposing prior art forms omega or TE, or crystalline form C (characterized by x-ray reflections at 7.2°, 10.8°, 15.8°, 21.8°, and 26.2°±0.2° 2θ) to an atmosphere having a relative humidity of at least about 60% (form c), or at least about 80% (form TE and omega) for an exposing time. The exposing time will generally be between about 24 hours and two weeks.
Preferably, the form omega, TE, or C is exposed as a thin layer of particles or crystals to facilitate diffusion of gasses and vapors. Preferably, the exposing is at ambient temperature.
The present invention can be further illustrated with the following non-limiting examples. In the following examples, the polymorphic or pseudopolymorphic form of gatifloxacin was determined by x-ray diffraction.
Gatifloxacin in form Ω (200 mg powder) was spread as a thin layer in a container having short vertical walls. The container was placed in a controlled humidity cell at 100% RH for 1 week.

[2] = reported in U.S. Pat. No. 5,880,283; cited from earlier work
[3] = reported in U.S. Pat. No. 5,880,283; cited from earlier work; remark: listed apart in the source
[4] = among the crystalline forms, per WO 02/22126 A1; cited from earlier work
[5] = room temperature, among the crystalline forms, per WO 02/22126 A1; cited from earlier work

| Structure (SMILES) | crystalline form found after humidity exposure ([1]; 80% RH, two weeks) | crystalline form found after humidity exposure ([1]; 100% RH, two weeks) | hygroscopicity [2] | further results |
| --- | --- | --- | --- | --- |
| COc1c(N2CCNC(C)C2)c(F)cc2c(=O)c(C(=O)O)cn(C3CC3)c12 (stereo not drawn) [form Ω, gatifloxacin] | – | – | – | crystalline form found after humidity exposure ([1]; 80% RH, 1 week): approximately equal weight (1:1) mixture of form O and form Ω; crystalline form found after humidity exposure ([1]; 100% RH, 1 week): approximately equal weight (1:1) mixture of form O and sesquihydrate |
| COc1c(N2CCNC(C)C2)c(F)cc2c(=O)c(C(=O)O)cn(C3CC3)c12 (stereo not drawn) [form C, gatifloxacin] | approximately 30:70 mixture by weight of form O and sesquihydrate | mixture of form O and sesquihydrate | – | crystalline form found after humidity exposure ([1]; 60% RH, two weeks): approximately 80:20 mixture by weight of form C and form O |
| COc1c(N2CCNC(C)C2)c(F)cc2c(=O)c(C(=O)O)cn(C3CC3)c12 (stereo not drawn) [sesquihydrate, gatifloxacin] | – | – | less hygroscopic | stability in manufacturing [3]: more stable |
| COc1c(N2CCNC(C)C2)c(F)cc2c(=O)c(C(=O)O)cn(C3CC3)c12 (stereo not drawn) [form TE, gatifloxacin] | approximately equal weight mixture (1:1) of form O and sesquihydrate | approximately equal weight (1:1) mixture of form O and sesquihydrate | – | – |
| COc1c(N2CCNC(C)C2)c(F)cc2c(=O)c(C(=O)O)cn(C3CC3)c12 (stereo not drawn) [hemihydrate, gatifloxacin] | – | – | hygroscopic | – |
| COc1c(N2CCNC(C)C2)c(F)cc2c(=O)c(C(=O)O)cn(C3CC3)c12 (stereo not drawn) [pentahydrate, gatifloxacin] | – | – | – | thermodynamic stability [4]: most thermodynamically stable form; aqueous solubility [5]: lowest |
